Test results taken from patent US20100275328A1, “METHOD OF SELECTIVELY PRODUCING MALE OR FEMALE STERILE PLANTS” (Syngenta Limited, priority 2003, published 2010).

Key:
[1] = test system: Nicotiana tabacum var. Samsun; assay: Conditional female sterility of transgenic tobacco expressing mutant D-amino acid oxidase in female floral tissue; format: in vivo; details: for seed production after treatment / pollen production after treatment: transgenic tobacco; for seed production after treatment: female floral promoter-DAMOX, foliar spray, root drench or bud application; for pollen production after treatment: same treatment conditions
Experimental: Tobacco leaf discs are transformed with the recombinant binary vectors using methods similar to those described in Horsch et al (1985) Science, 227, 1229-1231. Many variations of the method may be used. The binary vector can be transformed into, for example, Agrobacterium tumefaciens strain LBA 4404 using the freeze thaw method of transformation. Tobacco transformation and whole plant regeneration is performed using Nicotiana tabacum var. Samsun according to protocols described by Draper et al (Plant Genetic Transformation, Blackwell Sci. Pub. 1989). Transformation events are selected on MS-media containing kanamycin or other suitable antibiotic. The presence of integrated transgenes is confirmed by PCR. Plants are regenerated and allowed to reach maturity and selfed on to produce seed. Northern and/or Western analysis is used to confirm tissue-specific expression of the D-amino acid oxidase genes. The selected plants are self-fertile but have the condition of conditional female sterility. Seeds of the T1 generation are planted out. Once plantlets have grown to a sufficient size they are tested by PCR for the presence of transgene. PCR positive plants are transferred to the greenhouse. These plants are fully fertile in the absence of exogenously applied proherbicide. A subset of these (putatively) conditionally sterile plants are treated with D-phosphinothricin or D-aspartate or D-glutamate in various amounts and at varying growth stages. Such treatments are carried out on the T1 plants confirmed as PCR positive for the D-amino acid oxidase gene, or, equally, such treatments are carried out directly on plants of the To generation (which are vegetatively cloned so that untreated clones of each event may be set aside for seed production). […] For example these amino acids are pure D enantiomers or, alternatively, are DL racemates. For example, they are applied as a foliar spray, prior to or during the early stages of flower formation, at rates usually between 0.25 and 20 kg/ha. Amino acids which may crystallise out of solution on the leaves following foliar application may be redissolved and remobilised for leaf uptake by further applications of water as a spray mist. Amino acids are, for example, also applied as a root drench and optionally, further applied as ˜50 ul of a 10-200 mM solution flooded directly into the buds of emerging florets. Pollen from the treated plants is collected and viability is tested. […] Controls include both transgenic and non-transgenic plants and are grown under identical conditions and under an identical regime of physical treatments except that treatment solutions are either water or an equivalent concentration of pure L-amino acid.
In one variant of the method, the amino acid applied is racemic DL phosphinothricin. In this case, the DNA construct used for transformation comprises, in addition to the DNA sequence encoding a D-amino acid oxidase under operable expression control of a tissue specific female floral promoter region such as ‘stig 1’, also a DNA sequence (EMBL: A02774) a […] under operable control of a promoter region such as the region 5′ of the translational start of the plastocyanin gene of the Pisum sativum plastocyanin gene (EMBL accession number X16082). For example, the construct is the same as depicted in FIG. 1.
The plastocyanin promoter region provides for preferential expression in the green tissues of the plant. […] Furthermore, in the absence of the heterologous D-amino acid oxidase being co-expressed in the floral tissues, the plastocyanin/PAT gene combination provides essentially complete reproductive tolerance with no significant loss of yield despite the PAT expression level being low or non-existent in many of the critical floral tissues when expressed under control of this promoter region. […]

D-amino acid oxidase = assay: Control experiments: oxidation of pure L and pure D form of phosphinothricin by D-amino acid oxidase; format: biochemical, Rhodotorula gracilis; details: oxygen electrode
Experimental: Approximately 7 g wet weight of cells is washed in water. The cells are resuspended in an equal volume of 50 mM/Mops/KOH buffer at pH 7.0 containing 2 mM EDTA, 2 mM DTT and 0.01 mM FAD. Cells are evenly suspended using a glass homogeniser and then disrupted using a one shot head in the Constant Systems (BudBrooke Rd, Warwick U.K.) Basic Z cell disrupter at 13500 psi. The crude extract is kept cold (−4° C.) centrifuged at 30,000 gav for 1 h and the pellet discarded. Some of the extract protein is run out on an SDS PAGE gel stained with Coomassie Blue and, through side by side comparison with similarly prepared extracts of cells containing only ‘empty’ pET vector it is estimated that 2-50% of the total soluble protein in the extract is D-amino acid oxidase. Some of the extract protein is exchanged into 50 mM Mops/KOH buffer at pH 7.0 containing 0.01 mM FAD. This is diluted with the same buffer in a standard oxygen electrode cell (calibrated at 25° C. between zero and a saturated concentration of oxygen). Optionally, the D-amino acid oxidase is further purified using ion-exchange, phenyl sepharose, fractional ammonium sulphate precipitation and gel filtration. […] Final amounts of protein in the cell vary up to 5 mg depending on the level of activity being measured. Rates of oxygen consumption (after substraction of any drift in the bases line) are measured.

Tobacco plants = assay: Conditional male sterility of transgenic tobacco expressing mutant D-amino acid oxidase in male floral tissue; format: in vivo; details: rates between 250 g/ha and 5 kg/ha; TAP1 or TA29-DAMOX plus plastocyanin-PAT tobacco
Experimental: Tobacco plant material is transformed, via Agrobacterium, with vector and transgenic plants are regenerated in a similar manner to that described in the previous example. The plants produced are self-fertile but are conditionally male sterile. Seeds of the T1 generation are planted out into soil. Once plantlets have grown to a sufficient size they are tested by PCR for the presence of transgene. PCR positive plants are transferred to the greenhouse. These plants are fully fertile in the absence of exogenously applied proherbicide. A subset of these putatively conditionally sterile T1 plants, or, alternatively plantlets of T0 ‘events’ (direct regenerants from transformation) are treated with D-phosphinothricin or D-aspartate or D-glutamate in various amounts and at varying growth stages. Where To plants are treated they are vegetatively cloned so that untreated siblings of the events are set aside for seed production. […] For example these amino acids are pure D enantiomers or, alternatively, are DL racemates. For example, they are applied as a foliar spray, prior to or during the early stages of flower formation, at rates usually between 0.25 and 20 kg/ha. Amino acids which may crystallise out of solution on the leaves following foliar application may be redissolved and remobilised for leaf uptake by further applications of water as a spray mist. […]

wheat = assay: Reproductive tolerance of wheat containing PAT gene under barley plastocyanin promoter; format: in vivo; details: wheat with PAT under barley plastocyanin promoter; rates of at least 2 kg/ha
Source text: The current invention provides a method of overcoming the problem of enabling the use of a cheap commercial herbicide, DL phosphinothricin, as both weed control and hybridising agent in the production of hybrid cereals and which method, furthermore, provides resultant hybrid cereals or rice in which DL phosphinothricin (or L-phosphinothricin) can be safely used for weed control without substantial loss of yield. As a yet further benefit, selfed seed from the F1 generation which may later arise as volunteers in subsequent crops will be easier to manage since they, themselves, will generally be sterile if sprayed with controlling amounts of DL phosphinothricin. The same holds for the progeny of pollen outcrossing from the F1 plants to weeds (e.g red rice) or other cereals. The current invention provides genes and enzymes that convert a non-phytotoxic component, D-phosphinothricin, of a commercial herbicide formulation DL phosphinothricin, into the active L form. The PAT gene which converts L-phosphinothricin to N-acetyl L-phosphinothricin is known already and is used commercially to provide tolerance to DL phosphinothricin in crops. […]

[2] = rates between 250 g/ha and 5 kg/ha, stig1-DAMOX plus plastocyanin-PAT tobacco

Structure (SMILES): N[C@H](CC(=O)O)C(=O)O [D-aspartate]
- seed production after treatment [1]: relatively little or no seed
- pollen production after treatment [1]: near normal levels of viable pollen

Structure (SMILES): N[C@H](CCC(=O)O)C(=O)O [D-glutamate]
- seed production after treatment [1]: relatively little or no seed
- pollen production after treatment [1]: near normal levels of viable pollen

Structure (SMILES): CP(=O)(O)CC[C@@H](N)C(=O)O [D-phosphinothricin]
- oxidation of pure enantiomer of phosphinothricin (D-amino acid oxidase): up to twice the rate that the DL racemate is
- seed production after treatment [1]: relatively little or no seed
- pollen production after treatment [1]: near normal levels of viable pollen

Structure (SMILES): CP(=O)(O)CCC(N)C(=O)O (stereo not drawn) [DL phosphinothricin]
- male fertility of treated plants (Tobacco plants): rendered conditionally male sterile
- visible damage of treated plants (Tobacco plants): not visibly damaged
- reproductive tolerance to the herbicide ([1]; plastocyanin promoter/PAT gene, rates in excess of 2 kg/ha): substantially complete reproductive tolerance
- female fertility of treated plants [1, 2]: rendered conditionally female sterile
- visible damage of treated plants [1, 2]: not visibly damaged
- reproductive tolerance to application (wheat): substantially reproductively tolerant

Structure (SMILES): CP(=O)(O)CC[C@H](N)C(=O)O [pure L-form, L-phosphinothricin]
- oxidation of pure enantiomer of phosphinothricin (D-amino acid oxidase): not oxidised at detectable levels
